Assay: Phase transition temperature (differential thermal analysis)
Type: physicochemical
Details: single phospholipid
Method: Phase transition temperature was determined by differential thermal analysis.

Row | Substance | phase transition temperature (found value) of phospholipid [°C]
1 | steroylpalmitoylphosphitdylcholine [SPPC] | 44.0
2 | palmitoylstearoylphosphitadylcholine [PSPC] | 47.4
